# Test results from publication PMC9189929, “Synthesis, Screening and Characterization of Novel Potent Arp2/3 Inhibitory Compounds Analogous to CK-666” (Frontiers in Pharmacology, 2022).
# “Also recorded” adds a separate entry of the source.
# Tests used:
# [1] = system: B16-F1 cells; test: Wound healing (cell migration) of B16-F1 cells; assay type: cell-based, mouse; conditions: for Inhibition of cell migration (wound healing) compared with 100 µM CK-666: compound at 25 µM
# Experimental: For the wound healing, B16-F1 cells were seeded onto 8-well Ibidi dishes coated with laminin, and grown to confluence. Wounds in the cell monolayer were obtained by scratching the monolayer with a pipet tip. Detached cells were immediately washed away and new medium containing the various compounds was added. Cells were then used for videomicroscopy.
# Videomicroscopy was performed on an inverted Axio Observer microscope (Zeiss) equipped with a Pecon Zeiss incubator XL multi S1 RED LS (Heating Unit XL S, Temp module, CO2 module, Heating Insert PS and CO2 cover), Definite focus module and a Hamamatsu camera C10600 Orca-R2. Phase contrast images were taken every 30 min for 24 h using the 10X/0.25 Plan-Apochromat air objective. For immunofluorescence, slides were observed and imaged with the 63X/1.4 Plan-Apochromat oil objective. Fluorophores were excited with the HBO 100 W lamp (Osram) installed in the HXP 120 Metal halide fluorescence light source (Zeiss).
# (§1) Image analysis was performed in ImageJ or FIJI software. To measure wound healing, boundaries of the wound were drawn manually at different time points, then wound size was measured.
# [2] = molecular target: T1, Arp2/3 (Bos taurus, UniProt A7MB62+P61157); test: Pyrene-actin polymerization assay; assay type: biochemical, bovine; conditions: for IC50: 1.5 μM actin (10% pyrenyl-labeled), read-out: IC50 of Arp2/3-mediated actin polymerization; for IC50 / Arp2/3 inhibition reached at saturation: 20 nM Arp2/3, 250 nM N-WASP VCA; for Arp2/3 inhibition reached at saturation: 1.5 μM actin
# T1 construct: purchased Cytoskeleton, Inc
# Experimental: Actin was purified from rabbit muscle and was pyrenyl-labeled ([Carlier et al., 1984]; [Malm, 1984]). Arp2/3 was from Cytoskeleton, Inc. VCA domain of N-WASP was purified as previously described ([Clainche et al., 2003]). Pyrene-actin polymerization assays were performed as previously ([Romero et al., 2007]). Briefly, CaATP-actin was converted into MgATP-actin in (5 mM Tris, 0.2 mM ATP, 0.1 mM CaCl2, 1 mM DTT, 1 mM MgCl2, and 0.2 mM EGTA, pH 7.6) and kept on ice for no more than 1 h. Actin polymerization was monitored in (5 mM Tris, 50 mM KCl, 0.2 mM ATP, 0.1 mM CaCl2, 1 mM DTT, 1 mM MgCl2, 0.2 mM EGTA, pH 7.6) in the presence of 2% DMSO alone or 2% DMSO containing the appropriated compound concentration. The increase in fluorescence of 10% pyrenyl-labeled actin was monitored using a Safas spectrofluorimeter (λexc = 366 nm, λem = 407 nm). The maximum rate of actin polymerization was derived from the maximum slope of the polymerization curve multiplied by [total polymer]/(RFUmax—RFUmin) [total polymer] is the total actin minus the critical concentration (0.1 μM) and RFU, Relative Fluorescence Unit. The maximum elongation rates of actin polymerization were plotted as a function of the concentration of the different compounds. For CK-666, 59, 69 and 71, curves were fitted with the following equation to determine the IC50. Mrate= Rmax−Rmax−Rmin/1+IC50/(Compound Conc.) where Mrate is the measured maximum rate of actin polymerization at a given compound concentration, Rmax is the maximum rate of actin polymerization with no compound, and Rmin is the maximum rate of actin polymerization at saturating concentration of compound.
# The curve of compound 15 was fitted with a linear decay. The IC50 was determined at half inhibition of actin polymerization.
# [3] = system: B16-F1 cells; test: Lamellipodium formation in B16-F1 cells (cortactin immunofluorescence); assay type: cell-based, mouse; conditions: for Inhibition of lamellipodium formation: 100 μM, 1 h; for Dose-dependent inhibition of lamellipodium formation, potency relative to CK-666: dose-dependent assay (Figure 2D)
# Experimental: Lyophilized compounds were resuspended with fresh DMSO from sealed vials (cell biology grade). Compounds, stored at +4°C, were used within a week. B16-F1 cells were seeded onto glass coverslips coated for 1 h with 25 μg/ml laminin (Sigma) in (50 mM Tris, 150 mM NaCl, pH 7.4). […] Cell were then processed for immunofluorescence.
# Cells were fixed in 3.2% PFA on PBS, then quenched with 50 mM NH4Cl and permeabilised with 0.5% Triton X-100. After blocking in 2% BSA cells were incubated with antibodies (1–5 μg/ml for the primary, 5 μg/ml for the secondary). Total actin in cells was visualized by phalloidin staining. Nuclei were stained with 0.3 μg/ml DAPI (Roche). Coverslips were mounted in Dako Fluorescence Mounting Medium (Agilent). For immunofluorescence, ARPC2 rabbit polyclonal antibody (Millipore, 07–227), Cortactin mouse monoclonal 4F11 (Millipore, 05–180) were used. Secondary goat anti-mouse and anti-rabbit antibodies conjugated with Alexa Fluor 555 and 647 respectively were from Life Technologies. Phalloidin conjugated with Alexa Fluor 488 was from Tebu-bio.
# as §1
# [4] = system: MCF10A cells; test: EdU incorporation / cell cycle progression screen in MCF10A cells; assay type: cell-based, human; conditions: for Outcome of EdU incorporation screen: 0.025 to 100 μM; for IC50: Homo sapiens, MCF-10A, 18 h treatment, rough values from Figure 1 graphs, read-out: IC50 (concentration required for 50% decrease of EdU-positive cells)
# Experimental: For cell cycle progression using EdU, MCF10A cells were seeded in 384-well plates at a density of 800 cells per well. […] EdU from kit C10337 (ThermoFischer Scientific, Waltham, MA, United States) was then added to the cells at 10 μM and incubated for 2.5 h. Cells were fixed in 4% paraformaldehyde for 30 min at room temperature. Click-iT reaction was performed for 1 h at room temperature, protected from light, with 5 µM Alexa Fluor 488 azide in (100 mM Tris, 1 mM CuSO4, 50 mM Ascorbic Acid, pH 8.5). Nuclei were counterstained with Hoechst 33,342 (Thermo Fisher Scientific). Imaging and analysis were performed using the ImageXpress Micro XL High-Content Screening System (Molecular Devices LLC, San Jose, CA, United States). IC50 values were determined by sigmoidal curve fitting using GraphPad Prism six software.
# [5] = system: sea urchin embryos; test: Sea urchin embryo development assay; assay type: in vivo, Paracentrotus lividus; conditions: for Effect on archenteron elongation / Effect on primary mesenchyme cell (PMC) migration: observed up to four-arm mid-pluteus stage
# Experimental: The procedure was described in detail in [Semenova et al., 2018]. Briefly, adult sea urchins, Paracentrotus lividus L (Echinidae), were collected from the Mediterranean Sea on the Cyprus coast and kept in an aerated seawater tank. Gametes were obtained by intracoelomic injection of 0.5 M KCl. Eggs were washed with filtered seawater and fertilized by adding drops of diluted sperm. Embryos were cultured at room temperature under gentle agitation with a motor-driven plastic paddle (60 rpm) in filtered seawater. […] For treatment with test compounds, 5 ml aliquots of embryo suspension were transferred to six-well plates and incubated at a concentration of 1,000–2,000 embryos/ml. For images, sedimented embryos were concentrated in the center of the well by gentle rotation of the culture plate, and 200 μl aliquots containing several hundred embryos were used to take pictures (up to 20 images from different fields). Embryos selected for Figure 4 were representative of the population.
# (§2) Stock solutions of compounds were prepared in DMSO at 50–250 mM concentration followed by a 10-fold dilution with 96% EtOH. This procedure enhanced the solubility of the test compounds in the salty seawater. Maximal tolerated concentrations of DMSO and EtOH in the assay were determined to be 0.05 and 1%, respectively. Higher concentrations of either DMSO (>0.1%) or EtOH (>1%) caused nonspecific alterations and retardation of the sea urchin embryo development independent of the treatment stage. Maximum solubility of compounds 15, 59, 69, and 71 was about 5–20 mM in seawater, since visible crystals formed at higher concentrations.
# The effects were assessed after exposure of fertilized eggs (8–15 min post fertilization, 45–55 min before the first mitotic cycle completion) to 2-fold decreasing concentrations of the compound. Embryonic development was monitored until the beginning of active feeding at four-arm pluteus stage (33–36 h postfertilization). Developmental abnormalities were estimated quantitatively as minimal effective concentration (MEC), resulting in inhibition of archenteron elongation or skeletal spicule formation.
# [6] = Maximum solubility in seawater; assay type: physicochemical; conditions: saline or isotonic, kinetic from dmso stock, visible crystals formed at higher concentrations
# Experimental: as §2
# [7] = treated at zygote stage, monitored to four-arm pluteus
SMILES,Inhibition of lamellipodium formation [3],Outcome of EdU incorporation screen [4],IC50 [4],Inhibition of cell migration (wound healing) compared with 100 µM CK-666 [1],IC50 [2],Arp2/3 inhibition reached at saturation [2],solubility [6],also measured
"COCC(=O)NCCc1c[nH]c2ccccc12 [CK-689, N-(2-(1H-Indol-3-yl)ethyl)-2-methoxy-acetamide, reference compound]",formed a single wide lamellipodium encompassing most cell perimeter,–,–,–,–,–,–,"Inhibition of wound healing ([1]; 100 µM): but not CK-689, inhibits wound healing; Activity against Arp2/3 in vitro ([2]; pyrene-actin assay): inactive"
"Cc1[nH]c2ccccc2c1CCNC(=O)c1cc([N+](=O)[O-])ccc1Cl [Compound 12, 2-Chloro-N-[2-(2-methyl-1H-indol-3-yl)ethyl]-5-nitrobenzamide]",significantly less active than CK-666,scored positive,13.8 µM,–,–,–,–,–
"Cc1[nH]c2ccccc2c1CCNC(=O)c1ccccc1C(=O)c1ccccc1 [Compound 15, 2-Benzoyl-N-[2-(2-methyl-1H-indol-3-yl)ethyl]benzamide]",–,scored positive,20 µM,inhibited cell migration as efficiently as 100 µM CK-666,104 µM,100%,5 to 20 µM,"Cell rounding and detachment in wound healing assay ([1]; 25 µM): not observed; Cell rounding and detachment in wound healing assay ([1]; 100 µM): induced cell rounding followed by detachment from the substrate; Developmental abnormality ([5]; 5 μM): suppressed plutei growth; Developmental abnormality ([5]; 20 μM): Non-specific defects; also recorded: defective gastrulation was observed; Minimum effective concentration, Systemic Toxicity [5, 7]: 5 µM; Dose-dependent inhibition of lamellipodium formation, potency relative to CK-666 [3]: significantly more potent than CK-666"
"CCc1cc2cc(C(=O)NCCc3c(C)[nH]c4ccc(C)cc34)sc2s1 [Compound 24, N-[2-(2,5-Dimethyl-1H-indol-3-yl)ethyl]-5-ethylthieno[2,3-b]thiophene-2-carboxamide]",significantly less active than CK-666,scored positive,4.01 µM,–,–,–,–,–
"Cc1ccc2[nH]c(C)c(CCNC(=O)c3ccc(C(=O)c4ccccc4)o3)c2c1 [Compound 30, 5-Benzoyl-N-[2-(2,5-dimethyl-1H-indol-3-yl)ethyl]-2-furamide]",significantly less active than CK-666,scored positive,0.696 µM,–,–,–,–,–
"Cc1[nH]c2ccc(OCc3ccccc3)cc2c1CCNC(=O)c1cccc(Br)c1 [Compound 59, N-{2-[5-(Benzyloxy)-2-methyl-1H-indol-3-yl]ethyl}-3-bromobenzamide]",–,scored positive,11.5 µM,more active than CK-666,180 µM,saturation was not reached,5 to 20 µM,"Cell rounding and detachment in wound healing assay ([1]; 25 µM): not observed; Cell rounding and detachment in wound healing assay ([1]; 100 µM): to a lesser extent 59 induced cell rounding followed by detachment from the substrate; Effect on archenteron elongation [5]: inhibited elongation of the archenteron at approximately half-size; Effect on primary mesenchyme cell (PMC) migration [5]: altered PMC migration resulting in the lack of ventrolateral clusters and spicules; Minimum effective concentration, Inhibition of Archenteron elongation [5, 7]: 10 µM; Minimum effective concentration, Inhibition of Spicule formation [5, 7]: 5 µM; Dose-dependent inhibition of lamellipodium formation, potency relative to CK-666 [3]: slightly less active than CK-666"
"Cc1[nH]c2c(Cl)cccc2c1CCNC(=O)c1cc(S(=O)(=O)N(C)C)c(Cl)cc1Cl [Compound 69, 2,4-Dichloro-N-[2-(7-chloro-2-methyl-1H-indol-3-yl)ethyl]-5-[(dimethylamino)sulfonyl]benzamide]",–,scored positive,50.5 µM,inhibited cell migration as efficiently as 100 µM CK-666,61 µM,67%,5 to 20 µM,"Developmental phenotype ([5]; 12 μM, 22°C): Defective gastrulation; Effect on archenteron elongation [5]: inhibited elongation of the archenteron at approximately half-size; Effect on primary mesenchyme cell (PMC) migration [5]: altered PMC migration resulting in the lack of ventrolateral clusters and spicules; Minimum effective concentration, Inhibition of Archenteron elongation [5, 7]: 5 µM; Minimum effective concentration, Inhibition of Spicule formation [5, 7]: 5 µM"
